*1 amine or outer side, *2 acyl side, *3 side chain or, on linkers, in order; H or OH if unused. Where a SMILES comes first, the peptide text is derived from it. Bridges are numbered along the chain shown (N, C = ends). Where no end group is shown, it is not given here. [ ]: non-standard residue; d: D form. The star is where a group is joined. 4‑Aminomethyl‑phenylacetyl = 4-aminomethyl-phenylacetyl unit, its amine closes the lactam, O=C(Cc1ccc(CN[*:1])cc1)[*:2]; dGly‑CF3 = O=C([C@H](N[*:1])C(F)(F)F)[*:2]; 2Nal = N[C@@H](Cc1ccc2ccccc2c1)C(=O)O; AEF = NCCOc1ccc(C[C@H](N)C(=O)O)cc1; X1 = O=C(Cc1ccc(CN[*:1])cc1)[*:2]; 3Pal = N[C@@H](Cc1cccnc1)C(=O)O; αMeL = CC(C)C[C@](C)(N)C(=O)O; CH2COCH2 = O=C(C[*:1])C[*:2]; NMeS = CN[C@@H](CO)C(=O)O; Pyrrolidide = C1CCN(*)C1; Dab = NCC[C@H](N)C(=O)O; βAla = NCCC(=O)O

For assay [1], the target named is T1, human IL-23R (Homo sapiens, UniProt Q5VWK5).
T1 sequence (Q5VWK5 22-629): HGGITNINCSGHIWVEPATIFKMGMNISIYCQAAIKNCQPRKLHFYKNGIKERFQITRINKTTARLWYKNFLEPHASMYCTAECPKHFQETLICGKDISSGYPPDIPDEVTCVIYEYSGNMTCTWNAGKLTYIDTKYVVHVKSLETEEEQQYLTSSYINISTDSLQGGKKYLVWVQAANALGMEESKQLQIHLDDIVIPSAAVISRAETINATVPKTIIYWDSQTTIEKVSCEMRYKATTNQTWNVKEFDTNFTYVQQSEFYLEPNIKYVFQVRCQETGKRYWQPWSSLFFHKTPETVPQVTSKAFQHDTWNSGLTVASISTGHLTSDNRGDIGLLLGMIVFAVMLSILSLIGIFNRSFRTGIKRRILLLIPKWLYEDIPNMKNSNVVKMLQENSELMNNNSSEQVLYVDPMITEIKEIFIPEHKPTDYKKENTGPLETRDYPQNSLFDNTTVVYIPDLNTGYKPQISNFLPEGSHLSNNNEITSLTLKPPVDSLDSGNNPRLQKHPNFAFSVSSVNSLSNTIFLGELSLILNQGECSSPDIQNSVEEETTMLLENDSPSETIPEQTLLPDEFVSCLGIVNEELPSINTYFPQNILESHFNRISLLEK
Put plainly: biochemical. Particulars: for Emax: read-out: % displacement (hIL-23R binding). From the text:
The compound binding affinity for IL-23R was estimated by the ability of compounds to displace a fluorophore-labelled reference compound from the human IL-23R. The assay principle relies on Bioluminescence Resonance Energy Transfer (BRET) between a fluorophore-labelled reference compound binding to the IL-23R part of a fusion protein consisting of the IL-23R fused to a Nanoluc luciferase enzyme (Nanoluc). The Nanoluc is placed in the N-terminus in close proximity to the binding domain of the ligand. Upon close proximity between the fluorophore of the fluorophore-labelled compound and the Nanoluc of the fusion protein, bioluminescence energy generated from conversion of a Nanoluc substrate, is transferred to the fluorophore resulting in an increase in BRET. In presence of an unlabelled compound, the unlabelled compound displaces the fluorophore-labelled peptide from its binding site resulting in a decrease in BRET. The concentration for which half of the fluorophore-labelled peptide is displaced by the unlabelled compound depends on the affinity of the compound for the IL-23R, and is termed the IC50 concentration.
The plasmid also contained a gene to confer resistance for the antibiotic hygromycin. A cell line stably expressing the Nluc-IL23R fusion protein was generated by transfection of HEK293 cells with the expression plasmid and selected with hygromycin for 3 weeks in Growth medium consisting of DMEM w/ Glutamax-I containing, 10% V/V FBS, 1% V/V P/S, 1 mM Sodium Pyruvate, and 1X NEAA, and 0.3 mg/mL hygromycin. The remaining cells were propagated and considered a stable expressing Nluc-IL23R fusion protein pool clone.
Cells expressing the Nluc-IL23R fusion protein were expanded in Growth medium and membranes prepared by homogenization of a cell pellet from 18 T175 flasks (4 °C in subsequent steps). The cell pellet was lysed Tris 10 mM, 7.5, 1 mM EDTA and protease inhibitors (Complete, Roche) and homogenized using a 15 mL glass-dounce by 50 strokes. The homogenate was spun at spin @1500 rpm for 10 min, the supernatant transferred to SV-34 tubes and spun at 40000g for 20 min at 4 °C to pellet the crude membranes. The supernatant was then removed, the pellet resuspended in 5 mL buffer containing 50 mM HEPES pH 7.4, 5 mM EGTA, and 5 mM MgCl2, and homogenized. Aliquots of the resuspended and homogenized membranes containing the Nluc-IL23R fusion protein were stored at -80 °C until use.
The plate was sealed with light impermeable plate seals, and incubated on an orbital shaker 400 rpm for 2 hours at room temperature. To determine the BRET ratio, the plate seal was removed and 25 µL of the Nanoluc substrate (Promega N1572) diluted 1:500 was added to each well and incubated for 1-2 minutes on an orbital shaker at 400 rpm. […] The BRET ratio was calculated as the fluorescence from the TAMRA/nanoluc bioluminescence.
Compound potency (IC50) and maximal displacement (% displacement) were estimated by computer-aided curve fitting using a 4-parameter logistic (4PL) non-linear model. […]
In this application, the inventors provide the data as IC50 values.

Assay [2] has as its target T2, human IL-23R endogenously expressed on DB cells (human, UniProt Q5VWK5 24-629).
T2 sequence (looked up): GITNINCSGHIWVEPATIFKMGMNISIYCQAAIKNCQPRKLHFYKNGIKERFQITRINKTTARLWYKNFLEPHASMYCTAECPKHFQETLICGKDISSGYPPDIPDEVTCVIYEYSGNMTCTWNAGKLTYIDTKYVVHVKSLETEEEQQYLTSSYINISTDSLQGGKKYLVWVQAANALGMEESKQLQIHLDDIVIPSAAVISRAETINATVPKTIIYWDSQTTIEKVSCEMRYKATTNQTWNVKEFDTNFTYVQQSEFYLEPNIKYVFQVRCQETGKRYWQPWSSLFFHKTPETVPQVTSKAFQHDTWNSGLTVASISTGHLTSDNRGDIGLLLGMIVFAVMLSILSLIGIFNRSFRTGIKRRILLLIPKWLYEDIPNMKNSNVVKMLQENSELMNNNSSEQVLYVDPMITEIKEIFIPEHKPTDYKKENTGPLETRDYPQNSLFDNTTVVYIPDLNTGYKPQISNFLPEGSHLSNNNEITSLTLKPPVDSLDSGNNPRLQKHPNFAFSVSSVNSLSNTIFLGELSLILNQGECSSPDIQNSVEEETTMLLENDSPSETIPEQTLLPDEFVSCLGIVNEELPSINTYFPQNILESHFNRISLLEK
Put plainly: cell-based or functional assay.

With `CNC(=O)[C@H](Cc1cccnc1)NC(=O)[C@H](CCN)NC(=O)[C@@H]1CCC(=O)NCc2ccc(cc2)CC(=O)N(C)[C@@H](CO)C(=O)N[C@H]2CCC(=O)NCC[C@H](NC(=O)[C@H](CCC(N)=O)NC(=O)[C@H](Cc3c[nH]c4ccccc34)NC2=O)C(=O)N[C@@H](Cc2ccc(OCCN)cc2)C(=O)N[C@@H](Cc2ccc3ccccc3c2)C(=O)N[C@@](C)(CC(C)C)C(=O)N1` [Compound 18, [4-Aminomethyl-phenylacetyl](1c)*[N-Me-Ser]E(2c)WQ[Dab](2c)[Y(2-aminoethoxy)][2-Nal][2-Me-Leu]E(1c)[Dab][3-(3-Pyridyl)-Ala]-[NHMe]] ([X1][NMeS]EWQ[Dab][AEF][2Nal][αMeL]E[Dab][3Pal]-NHMe; lactam 3-6, N-10), in assay [1], the half-inhibitory concentration (IC50) is 0.015 nM and the Emax turned out to be 96%.

With `CC(C)C[C@]1(C)NC(=O)[C@H](Cc2ccc3ccccc3c2)NC(=O)[C@H](Cc2ccc(OCCN)cc2)NC(=O)[C@@H]2CSCC(=O)CSC[C@H](NC(=O)[C@H](CO)NC(=O)CCNC(=O)[C@H](Cc3cccnc3)NC(=O)CC[C@@H](C(=O)N[C@H](CCCNC(=N)N)C(N)=O)NC1=O)C(=O)N[C@@H](Cc1c[nH]c3ccccc13)C(=O)N[C@@H](CCC(N)=O)C(=O)N2` [Compound 2, [3-(3-Pyridyl)-Ala](4c)*[3-Aminopropanoyl]SC(2a)WQC(2a)[Y(2-aminoethoxy)][2-Nal][2-Me-Leu]E(4c)[{d}R]-[NH2]] ([3Pal][βAla]SCWQC[AEF][2Nal][αMeL]E[dR]-NH2; linker 4-7 via CH2COCH2; lactam N-11), in assay [1], the “% displacement (hIL-23R binding)” value is listed as 103% and it took 2.9 nM to reach half-maximal inhibition (IC50).

For `CC(C)C[C@]1(C)NC(=O)[C@H](Cc2ccc3ccccc3c2)NC(=O)[C@H](Cc2ccc(OCCN)cc2)NC(=O)[C@@H]2CCNC(=O)CC[C@H](NC(=O)[C@H](CO)NC(=O)Cc3ccc(cc3)CNC(=O)CC[C@@H](C(=O)NC[C@@H](N[C@@H](Cc3cccnc3)C(N)=O)C(F)(F)F)NC1=O)C(=O)N[C@@H](Cc1c[nH]c3ccccc13)C(=O)N[C@@H](CCC(N)=O)C(=O)N2` [Compound 16, [4-Aminomethyl-phenylacetyl](1c)*SE(2c)WQ[Dab](2c)[Y(2-aminoethoxy)][2-Nal][2-Me-Leu]E(1c)[{d}Gly-CF3][3-(3-Pyridyl)-Ala]-[NH2]], in assay [1], inhibition was half-maximal at 0.13 nM (IC50) and the Emax is 101%.

Turning to `CNC(=O)[C@H](Cc1cccnc1)NC(=O)[C@H](CCN)NC(=O)[C@@H]1CCC(=O)NCc2ccc(cc2)CC(=O)N[C@@H](C)C(=O)N[C@H]2CCC(=O)NCC[C@H](NC(=O)[C@H](CCC(N)=O)NC(=O)[C@H](Cc3c[nH]c4ccccc34)NC2=O)C(=O)N[C@@H](Cc2ccc(OCCN)cc2)C(=O)N[C@@H](CC2CC2)C(=O)NC(C)(C)C(=O)N1` [Compound 42, [4-Aminomethyl-phenylacetyl](1c)*AE(2c)WQ[Dab](2c)[Y(2-aminoethoxy)][Cyclopropyl-Ala][Aib]E(1c)[Dab][3-(3-Pyridyl)-Ala]-[NHMe]], the “% displacement (hIL-23R binding)” value in assay [1] is listed as 100%.

As for `CC(C)C[C@]1(C)NC(=O)[C@H](Cc2ccc3ccccc3c2)NC(=O)[C@H](Cc2ccc(OCCN)cc2)NC(=O)[C@@H]2CCNC(=O)CC[C@H](NC(=O)[C@H](CO)NC(=O)Cc3ccc(cc3)CNC(=O)CC[C@@H](C(=O)N[C@@H](CCN)C(N)=O)NC1=O)C(=O)N[C@@H](Cc1c[nH]c3ccccc13)C(=O)N[C@@H](CCC(=O)N1CCCC1)C(=O)N2` [Ref 146, [4-Aminomethyl-phenylacetyl](1c)*SE(2c)W[Q(pyrrolidin)][Dab](2c)[Y(2-aminoethoxy)][2-Nal][2-Me-Leu]E(1c)[Dab]-[NH2], reference compound] ([X1]SEWE(Pyrrolidide)[Dab][AEF][2Nal][αMeL]E[Dab]-NH2; lactam 3-6, N-10), the “% displacement (hIL-23R binding)” value in assay [1] is listed as 105%.

For `CNC(=O)[C@H](Cc1cccnc1)NC(=O)[C@H](CCN)NC(=O)[C@@H]1CCC(=O)NCc2ccc(cc2)CC(=O)N[C@@H](CO)C(=O)N[C@H]2CCC(=O)NCC[C@H](NC(=O)[C@H](CCCCNC(C)=O)NC(=O)[C@H](Cc3c[nH]c4ccccc34)NC2=O)C(=O)N[C@@H](Cc2ccc(OCCN)cc2)C(=O)N[C@@H](Cc2ccc3ccccc3c2)C(=O)N[C@@](C)(CC(C)C)C(=O)N1` [Compound 24, [4-Aminomethyl-phenylacetyl](1c)*SE(2c)W[K(Ac)][Dab](2c)[Y(2-aminoethoxy)][2-Nal][2-Me-Leu]E(1c)[Dab][3-(3-Pyridyl)-Ala]-[NHMe]] ([X1]SEWK(Ac)[Dab][AEF][2Nal][αMeL]E[Dab][3Pal]-NHMe; lactam 3-6, N-10), in assay [1], the “% displacement (hIL-23R binding)” value is 97% and half-maximal inhibition (IC50) required 0.014 nM.

Take H-DCSCWQCWWLCR-NH2 (bridge 4-7, 2-11; not fully specified (bridges)) [I3 (isomer 3)]: in assay [2], the “hIL-23 (pSTAT3) antagonist % inhibition” value turned out to be 100%.

For [4‑Aminomethyl‑phenylacetyl]SEWQ[Dab][AEF][2Nal][αMeL]E[dGly‑CF3][3Pal]-NH2 (lactam (positions not given here); lactam 3-6; not fully specified (bridges)) [Compound 16], in assay [2], the “hIL-23 (pSTAT3) antagonist % inhibition” value came to 97% and the “hIL-23 (pSTAT3) antagonist IC50” value came out at 1.4 nM.

B1: Ref 125 (peptide)
peptide: [4‑Aminomethyl‑phenylacetyl]SEWQ[Dab][AEF][2Nal][αMeL]E[Dab]-NH2
modifications: lactam (positions not given here); lactam 3-6; not fully specified (bridges); printed as [4-Aminomethyl-phenylacetyl](1c)*SE(2c)WQ[Dab](2c)[Y(2-aminoethoxy)][2-Nal][2-Me-Leu]E(1c)[Dab]-[NH2]
For B1, in assay [2], the “hIL-23 (pSTAT3) antagonist % inhibition” value turned out to be 98% and the “hIL-23 (pSTAT3) antagonist IC50” value was 21 nM.

As a reminder, the IC50 is the concentration at which inhibition is half-maximal. A high value points to lower potency.

Values taken from patent EP4471049A1 (Zealand Pharma A/S, priority 2023, dated 2024).
